# Test results as given in ChEMBL document CHEMBL1201862, “PubChem BioAssay data set” (2004).
#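 Each compound was tested at five concentrations against cells in 96-well plates for 48 hours. GI50 marks 50% less growth.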 Calls of active or inactive are those of the source. Cut-off read from the data, not from the text of the source: active = GI50 up to about 1.1 µM and inactive = higher.
# What was measured:
# Assay in all cases: NCI-60 cell line screen, 48 h
# [1] = tested on: SK-OV-3
# [2] = tested on: NCI-H522
# [3] = tested on: UACC-257
# [4] = tested on: K562
# [5] = tested on: SW-620
# [6] = tested on: SNB-19
# [7] = tested on: TK-10
# [8] = tested on: NCI-H226
# [9] = tested on: SK-MEL-28
# [10] = tested on: SF-268
# [11] = tested on: HOP-62
# [12] = tested on: SNB-75
# [13] = tested on: RXF 393
# [14] = tested on: CAKI-1
# [15] = tested on: RPMI-8226
# [16] = tested on: A498
# [17] = tested on: SK-MEL-2
# [18] = tested on: Malme-3M
# [19] = tested on: HL-60
Compound,GI50 [1],GI50 [2],GI50 [3],GI50 [4],GI50 [5],GI50 [6],GI50 [7],GI50 [8],GI50 [9],GI50 [10],GI50 [11],GI50 [12],GI50 [13],GI50 [14],GI50 [15],GI50 [16],GI50 [17],GI50 [18],GI50 [19]
CCc1c(O)c2c(c(O)c1C(C)=O)C(=O)c1c(cc(O)c(C(=O)O)c1C(=O)O)C2=O,> 100 µM (inactive),> 100 µM (inactive),> 100 µM (inactive),> 100 µM (inactive),> 100 µM (inactive),> 100 µM (inactive),> 100 µM (inactive),> 100 µM (inactive),> 100 µM (inactive),> 100 µM (inactive),> 100 µM (inactive),> 100 µM (inactive),> 100 µM (inactive),> 100 µM (inactive),> 100 µM (inactive),> 100 µM (inactive),> 100 µM (inactive),> 100 µM (inactive),
CCCCS/C(=C(/C#N)C(N)=O)c1cc2c([nH]1)CCCC2,22.9 µM (inactive),,14.3 µM (inactive),3.68 µM (inactive),6.12 µM (inactive),19.1 µM (inactive),15.3 µM (inactive),15.1 µM (inactive),14 µM (inactive),13.8 µM (inactive),21.9 µM (inactive),15.3 µM (inactive),14.9 µM (inactive),14 µM (inactive),6.71 µM (inactive),17.6 µM (inactive),12.1 µM (inactive),11.4 µM (inactive),3.67 µM (inactive)
CN1CCN(c2ccncc2S(=O)(=O)N2CCN(C)CC2)CC1,> 100 µM (inactive),> 100 µM (inactive),> 100 µM (inactive),> 100 µM (inactive),> 100 µM (inactive),> 100 µM (inactive),> 100 µM (inactive),> 100 µM (inactive),> 100 µM (inactive),> 100 µM (inactive),> 100 µM (inactive),> 100 µM (inactive),> 100 µM (inactive),> 100 µM (inactive),> 100 µM (inactive),> 100 µM (inactive),> 100 µM (inactive),> 100 µM (inactive),
COc1cc2c(cc1OCCN1C(=O)c3cccc4cccc(c34)C1=O)N=C[C@@H]1CCCN1C2=O,24.3 µM (inactive),1.17 µM (inactive),9.44 µM (inactive),1.15 µM (inactive),7.66 µM (inactive),12.4 µM (inactive),8.05 µM (inactive),7.26 µM (inactive),8.95 µM (inactive),7.74 µM (inactive),21.5 µM (inactive),13.3 µM (inactive),7.8 µM (inactive),7.5 µM (inactive),9.27 µM (inactive),9.04 µM (inactive),7.29 µM (inactive),8.02 µM (inactive),
CCCCn1c2c(c3ccccc3c1=O)C(=O)c1ccccc1-2,> 100 µM (inactive),37.8 µM (inactive),> 100 µM (inactive),> 100 µM (inactive),> 100 µM (inactive),,62.4 µM (inactive),> 100 µM (inactive),> 100 µM (inactive),29 µM (inactive),19.9 µM (inactive),37.2 µM (inactive),,25.9 µM (inactive),> 100 µM (inactive),> 100 µM (inactive),> 100 µM (inactive),> 100 µM (inactive),4.28 µM (inactive)
O=c1[nH]nc(-c2ccccc2)n1-n1cccc1,> 100 µM (inactive),> 100 µM (inactive),> 100 µM (inactive),> 100 µM (inactive),> 100 µM (inactive),> 100 µM (inactive),> 100 µM (inactive),> 100 µM (inactive),> 100 µM (inactive),> 100 µM (inactive),> 100 µM (inactive),> 100 µM (inactive),> 100 µM (inactive),> 100 µM (inactive),> 100 µM (inactive),> 100 µM (inactive),> 100 µM (inactive),> 100 µM (inactive),
COc1cc2c[n+](C)c3c4cc(OC)c(OCc5ccccc5)cc4c(OCc4ccccc4)cc3c2cc1OC,5.68 µM (inactive),0.416 µM (active),2.9 µM (inactive),1.28 µM (inactive),3.18 µM (inactive),0.923 µM (active),23.3 µM (inactive),2.26 µM (inactive),5.48 µM (inactive),3.44 µM (inactive),13.8 µM (inactive),4.46 µM (inactive),12.1 µM (inactive),35.2 µM (inactive),25.7 µM (inactive),48 µM (inactive),2.1 µM (inactive),2.22 µM (inactive),
Cc1nn(C(=O)c2ccncc2)c2c1C(c1ccc([N+](=O)[O-])cc1)SC(=N)N2 (stereo not drawn),> 100 µM (inactive),,> 100 µM (inactive),> 100 µM (inactive),> 100 µM (inactive),> 100 µM (inactive),> 100 µM (inactive),> 100 µM (inactive),> 100 µM (inactive),> 100 µM (inactive),> 100 µM (inactive),> 100 µM (inactive),> 100 µM (inactive),,> 100 µM (inactive),> 100 µM (inactive),> 100 µM (inactive),> 100 µM (inactive),> 100 µM (inactive)
COc1ccc2cc(C(=O)O)ccc2c1OC,> 100 µM (inactive),> 100 µM (inactive),> 100 µM (inactive),> 100 µM (inactive),> 100 µM (inactive),> 100 µM (inactive),,> 100 µM (inactive),,> 100 µM (inactive),> 100 µM (inactive),43 µM (inactive),,> 100 µM (inactive),,> 100 µM (inactive),> 100 µM (inactive),> 100 µM (inactive),> 100 µM (inactive)
CCCN(CCC)c1cc2c(cc1F)c(=O)c(C(=O)O)cn2-c1ccc(N2CCN(C)CC2)cn1,14.3 µM (inactive),11.5 µM (inactive),20.2 µM (inactive),17.8 µM (inactive),16.2 µM (inactive),15.3 µM (inactive),10.4 µM (inactive),16.7 µM (inactive),19.6 µM (inactive),15.6 µM (inactive),16.7 µM (inactive),14.7 µM (inactive),18.7 µM (inactive),15.3 µM (inactive),17.7 µM (inactive),19.8 µM (inactive),,13.3 µM (inactive),6.18 µM (inactive)
CCOC(=O)Oc1cc2ccsc2c2c1c1ccccc1n2C(=O)OCC,29 µM (inactive),32.1 µM (inactive),91 µM (inactive),> 100 µM (inactive),94.8 µM (inactive),,50 µM (inactive),42.2 µM (inactive),> 100 µM (inactive),64 µM (inactive),37.3 µM (inactive),27.1 µM (inactive),22.2 µM (inactive),58.2 µM (inactive),82 µM (inactive),18.4 µM (inactive),48.3 µM (inactive),33.7 µM (inactive),
CC(=O)Nc1ccc(/N=C2\C(c3ccccc3)=C(SC3=C(c4ccccc4)/C(=N\c4ccc(NC(C)=O)cc4)c4ccccc43)c3ccccc32)cc1,35.8 µM (inactive),28.4 µM (inactive),46 µM (inactive),32.6 µM (inactive),40.2 µM (inactive),56 µM (inactive),69.7 µM (inactive),53.6 µM (inactive),32.7 µM (inactive),33.8 µM (inactive),29.7 µM (inactive),23.2 µM (inactive),21.6 µM (inactive),31.4 µM (inactive),19.4 µM (inactive),20.6 µM (inactive),39.5 µM (inactive),27.2 µM (inactive),
NC(CCCCNC(=O)OCc1ccccc1)C(=O)NC(CCCCNC(=O)OCc1ccccc1)C(=O)ON1C(=O)CCC1=O (stereo not drawn),,,> 100 µM (inactive),> 100 µM (inactive),> 100 µM (inactive),> 100 µM (inactive),> 100 µM (inactive),> 100 µM (inactive),> 100 µM (inactive),,> 100 µM (inactive),27.2 µM (inactive),52.7 µM (inactive),,> 100 µM (inactive),> 100 µM (inactive),> 100 µM (inactive),61.4 µM (inactive),> 100 µM (inactive)
Cc1ccc2nc3[nH]nc(N)c3nc2c1,> 100 µM (inactive),> 100 µM (inactive),> 100 µM (inactive),,> 100 µM (inactive),> 100 µM (inactive),28 µM (inactive),45.3 µM (inactive),> 100 µM (inactive),> 100 µM (inactive),> 100 µM (inactive),64 µM (inactive),60 µM (inactive),42.6 µM (inactive),72.6 µM (inactive),85.3 µM (inactive),> 100 µM (inactive),> 100 µM (inactive),
CCOC1CC(C)N(C(=O)c2ccccc2)O1 (stereo not drawn),> 100 µM (inactive),,,> 100 µM (inactive),> 100 µM (inactive),> 100 µM (inactive),> 100 µM (inactive),> 100 µM (inactive),> 100 µM (inactive),> 100 µM (inactive),> 100 µM (inactive),,> 100 µM (inactive),,,> 100 µM (inactive),,> 10 µM (inactive),> 100 µM (inactive)
CCCCCCCCCCCCCC/C(C(=O)O)=C(\C)C(=O)O,> 100 µM (inactive),> 100 µM (inactive),> 100 µM (inactive),> 100 µM (inactive),> 100 µM (inactive),> 100 µM (inactive),> 100 µM (inactive),> 100 µM (inactive),> 100 µM (inactive),> 100 µM (inactive),> 100 µM (inactive),> 100 µM (inactive),> 100 µM (inactive),,40.4 µM (inactive),> 100 µM (inactive),> 100 µM (inactive),> 100 µM (inactive),58.3 µM (inactive)
